For 18 molecules, inhibition results are on record in EP2272817A1, “PAI-1 INHIBITOR” (Institute of Medicinal Molecular Design, Inc., priority 2008, dated 2009).

Molecules are shown by their SMILES.
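Further: PAI-1 preincubated with compound, then two-chain tPA added, residual tPA activity read with fluorogenic Pyr-Gly-Arg-MCA substrate after 30 min at room temperature.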

Sequence of recombinant human PAI-1 (P05121 24-402): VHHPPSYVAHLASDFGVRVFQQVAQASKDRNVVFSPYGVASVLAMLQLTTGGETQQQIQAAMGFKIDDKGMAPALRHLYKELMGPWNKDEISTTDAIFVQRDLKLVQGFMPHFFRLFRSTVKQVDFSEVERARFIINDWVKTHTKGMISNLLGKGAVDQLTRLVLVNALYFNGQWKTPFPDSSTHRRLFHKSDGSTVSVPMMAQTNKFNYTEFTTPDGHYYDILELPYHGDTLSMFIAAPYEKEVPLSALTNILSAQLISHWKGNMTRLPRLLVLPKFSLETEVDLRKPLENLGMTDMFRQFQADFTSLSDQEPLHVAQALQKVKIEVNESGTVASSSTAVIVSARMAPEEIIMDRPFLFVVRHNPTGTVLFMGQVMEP

The test addresses recombinant human PAI-1 (Homo sapiens, UniProt P05121). The experiment in a line: biochemical. Particulars: read-out: Inhibition Rate of PAI-1 Activity (%).
Procedure: To this solution, 6 µl of 80 nM recombinant human PAI-1 (Molecular Innovations, Inc.) solution prepared with Tris buffer was added, and the plate was incubated for 5 minutes at room temperature. Furthermore, 30 µl of 800 IU/ml two-chain tPA (Activity Standard; American diagnostica, inc.) prepared with Tris buffer was added, and the mixed solution was incubated for 15 minutes at room temperature. Then, 30 µl of 400 µM fluorogenic substrate (Pyr-Gly-Arg-MCA; Peptide Institute, Inc.) for tPA prepared with Tris buffer was added and reacted for 30 minutes at room temperature.
50 mM Tris, 150 mM NaCl, 10 µg/ml BSA, 0.01 % Tween80 (SIGMA-ALDRICH Corporation)
For the molecule `O=C(O)CCc1cc(-c2ccc(OC(F)(F)F)cc2)ccc1OCCCc1ccccc1` [Compound 101], the inhibition at 5 µM worked out at 42%, the inhibition at 10 µM is 73% and the inhibition at 25 µM was over 99%.
As for `O=C(O)CCc1cc(-c2ccc(OC(F)(F)F)cc2)ccc1OCCCOc1ccccc1` [Compound 103], the inhibition at 5 µM came out at 33%, the inhibition at 10 µM amounted to 57% and the inhibition at 25 µM is 89%.
`O=C(O)CCc1cc(-c2ccc(OC(F)(F)F)cc2)ccc1OCCCCCc1ccccc1` [Compound 104]: the inhibition at 5 µM came to 47%, the inhibition at 10 µM worked out at 77% and the inhibition at 25 µM amounted to 96%.
For the molecule `CC(C)(C)c1ccc(COc2ccc(-c3ccc(OC(F)(F)F)cc3)cc2COCC(=O)O)cc1` [Compound 107], the inhibition at 5 µM amounted to 48%, the inhibition at 10 µM stood at 85% and the inhibition at 25 µM came to 97%.
In the case of `CC(OCC(=O)O)c1cc(-c2ccc(OC(F)(F)F)cc2)ccc1OCc1ccc(C(C)(C)C)cc1` (stereo not shown) [Compound 108], the inhibition at 5 µM was found to be 52%, the inhibition at 10 µM was determined as 86% and the inhibition at 25 µM came to 95%.
For the molecule `CC(C)(C)c1ccc(COc2ccc(-c3ccc(OC(F)(F)F)cc3)cc2OCCCC(=O)O)cc1` [Compound 109], the inhibition at 5 µM was 24%, the inhibition at 10 µM worked out at 50% and the inhibition at 25 µM worked out at 96%.
On the same counts, the results for `CC(C)(Oc1ccc(-c2ccc(OC(F)(F)F)cc2)cc1Oc1ccc(C(C)(C)C)cc1)C(=O)O` [Compound 110] are 37%, 51% and 83%.
As to `CC(C)(OCc1ccc(-c2ccc(OC(F)(F)F)cc2)cc1Oc1ccc(C(C)(C)C)cc1)C(=O)O` [Compound 111], the inhibition at 5 µM was 55%, the inhibition at 10 µM was found to be 88% and the inhibition at 25 µM was found to be 94%.
Taken in the same sequence, the figures for `CCC(Oc1ccc(-c2ccc(OC(F)(F)F)cc2)cc1Oc1ccc(C(C)(C)C)cc1)C(=O)O` (stereo not shown) [Compound 114] were 64%, 87% and 95%.
Regarding `O=C(O)COc1cc(-c2ccc(OC(F)(F)F)cc2)ccc1OCCCCc1ccccc1` [Compound 115], the inhibition at 5 µM came out at 34%, the inhibition at 10 µM amounted to 59% and the inhibition at 25 µM was 90%.
Take `CC(C)(C)c1ccc(Oc2cc(-c3ccc(OC(F)(F)F)cc3)ccc2OC(F)C(=O)O)cc1` (stereo not shown) [Compound 119]: the inhibition at 5 µM worked out at 75%, the inhibition at 10 µM was 93% and the inhibition at 25 µM worked out at 99%.
For the molecule `CC(C)(C)c1ccc(Oc2cc(-c3ccc(OC(F)(F)F)cc3)ccc2OC(F)(F)C(=O)O)cc1` [Compound 120], the inhibition at 5 µM turned out to be 59%, the inhibition at 10 µM came to 87% and the inhibition at 25 µM was 98%.
`CC(C)(C)c1ccc(COc2ccc(-c3ccc(OC(F)(F)F)cc3)cc2OCc2nn[nH]n2)cc1` [Compound 122]: the inhibition at 5 µM turned out to be 29%, the inhibition at 10 µM is 63% and the inhibition at 25 µM was 99%.
Regarding `Cc1cc(C)cc(CN(C(=O)C(=O)O)c2ccc(-c3ccc(OC(F)(F)F)cc3)cc2)c1` [Compound 123], the inhibition at 5 µM amounted to 27% and the inhibition at 10 µM was 62%.
As to `O=C(O)C(=O)N(Cc1ccc(Cl)cc1)c1ccc(-c2ccc(OC(F)(F)F)cc2)cc1` [Compound 124], the inhibition at 5 µM amounted to 22% and the inhibition at 10 µM was 49%.
For the molecule `Cc1cccc(CN(C(=O)C(=O)O)c2ccc(-c3ccc(OC(F)(F)F)cc3)cc2)c1` [Compound 125], the inhibition at 5 µM stood at 15% and the inhibition at 10 µM was determined as 31%.
Consider `COc1ccc(-c2ccc(N(Cc3ccc(C(C)(C)C)cc3)C(=O)C(=O)O)cc2)cc1` [Compound 126], for which the inhibition at 5 µM was determined as 16% and the inhibition at 10 µM is 43%.
Turning to `CC(C)(C)c1ccc(CN(C(=O)C(=O)O)c2ccc(-c3ccc(F)cc3)cc2)cc1` [Compound 127], the inhibition at 5 µM was 21% and the inhibition at 10 µM is 43%.
